Experimental data as given in patent publication US9522164B2, “Disulfide chemotherapeutic agents and methods of use thereof” (Lankenau Institute for Medical Research, priority 2007, dated 2016).

Experiments:
breast tumor xenograft = experiment: Breast tumor xenograft model in rats, MPG disulfide with or without cisplatin; type: in vivo
Description: (§1) The efficacy of MPG disulfide in improving the response to cisplatin in the breast tumor xenograft model in rats was tested. MPG disulfide was tested against two different tumor sizes. These different tumor sizes were achieved by growing the tumor in rats for up to 6 days (small tumor, FIG. 13) or 12 days (large tumor, FIGS. 14 and 15). MPG disulfide was determined to be non-toxic to the animals.
(§2) The response of tumors to MPG disulfide was determined in rats with either small tumors (approximately 139 mm^3) or large tumors (approximately 2837 mm^3). MPG disulfide in physiological saline was administered at 40 mg/Kg/day via IP injections. The control animals were treated with saline. This treatment was continued for three consecutive days. […] Each group (control or MPG disulfide) consists of at least three animals. Each data point is mean of at least three animals with standard error as shown unless smaller than points plotted.
(§3) The improved response of large tumors to cisplatin by MPG disulfide was determined in rats with tumors of approximately 2837 mm^3 in tumor volume. MPG disulfide in physiological saline was administered at 40 mg/kg/day via IP injections. At one hour after MPG disulfide administration, cisplatin (2 mg/kg) was administered to these rats by IP. MPG treatment alone without cisplatin was continued for two more days in these animals. […] Each group (cisplatin or MPG disulfide with cisplatin) consists of at least three animals. Each data point is mean of at least three animals with standard error as shown unless smaller than points plotted.

[1] = test system: prostate cancer cell line (DU145); experiment: Radiation response (survival after 4Gy γ irradiation) with HEDS; type: cell-based, human; conditions: DU145, absence of glucose
Excerpt: (§4) FIGS. 17 and 18 show the impact of HEDS on the radiation response of a breast cancer cell line (MCF7) and a prostate cancer cell line (DU145) in the presence and absence of glucose.

[2] = test system: breast cancer cell line (MCF7); experiment: as above; type: cell-based, human; conditions: MCF7, absence of glucose
Excerpt: as §4

[3] = test system: radiation sensitive human colon cancer cells HCT116; experiment: Clonogenic (colony) assay, HEDS alone; type: cell-based
Description: In FIG. […] The cells were washed and replenished with fresh growth medium. Colony assays were carried out by plating cells at concentration that gives no more than 200 colonies. Each experiment was repeated at least three times with errors as shown unless smaller than points plotted.

breast tumor xenografts = experiment: Response of tumor xenografts in rats to etoposide with HEDS; type: in vivo; conditions: HEDS 10 mg/kg/day IP one hour before etoposide 12 mg/Kg/day IP, three consecutive days, tumor about 8×8 mm
Description: The use of HEDS, an oxidant/disulfide, to increase the response of tumor xenografts to topoisomerase II inhibitor, etoposide, was also investigated. […] The effect of HEDS (0 and 10 mg/kg/day) on the response of tumor to etoposide (12 mg/Kg/day) was determined in rats with tumor of approximately 8×8 mm in size. HEDS in physiological saline was administered at 0 and 10 mg/kg via IP injections. At one hour after HEDS administration, etoposide was administered to these rats by IP. This treatment was continued for three consecutive days. Tumor growth was measured twice a week for up to two weeks.

[4] = test system: human colon cancer cells HT29; experiment: Depletion of intracellular thiols (Ellman's reagent); type: cell-based; conditions: HEDS 3 hours
Description: […] After three hours of HEDS treatment, the attached cells were washed with cell rinse and lysed with 1 ml of sulphosalicyclic acid (SSA) lysis buffer. The samples were then centrifuged at high speed in a Fisher 59A microfuge and the supernatant was used for quantification of intracellular thiols using Ellman's reagent. Each experiment was repeated at least three times with errors as shown unless smaller than points plotted.

HCT116 cells = experiment: Colony assay, HEDS plus 4 Gy irradiation; type: cell-based, human; conditions: HCT116, absence of glucose, HEDS 1 hour before 4 Gy irradiation
Description: For FIG. 2, HCT116 cells were deprived of glucose for 4 hours, treated with various concentrations of HEDS for 1 hour, and then exposed to 4 Gy irradiation. Two hours after irradiation, the cells were washed and replenished with fresh growth medium. The colony assay was then performed as described above for FIG. 1.

[5] = test system: radiation resistant human colon cancer cells HT29; experiment: Clonogenic (colony) assay, HEDS alone; type: cell-based
Description: (§5) For FIG. 3, radiation resistant human colon cancer cells HT29 were deprived of glucose for 4 hours and then treated with various concentrations of HEDS for 3 hours. The cells were washed and replenished with fresh growth medium. For FIG. 4, HT29 cells were deprived of glucose for 4 hours, treated with various concentrations of HEDS, and then treated for 1 hour before 4 Gy irradiation. Two hours after irradiation, the cells were washed and replenished with fresh growth medium. Colony assays were carried out by plating cells at concentration that gives no more than 200 colonies. Each experiment was repeated at least three times with errors as shown unless smaller than points plotted. […]

[6] = test system: human colon cancer cells HCT116; experiment: Depletion of intracellular thiols (Ellman's reagent); type: cell-based; conditions: HEDS 3 hours
Description: The depletion of intracellular thiols by HEDS in human colon cancer cells HCT116 and HT29 was determined by first depriving the cells of glucose for 4 hours. After three hours of HEDS treatment, the attached cells were washed with cell rinse and lysed with 1 ml of sulphosalicyclic acid (SSA) lysis buffer. The samples were then centrifuged at high speed in a Fisher 59A microfuge and the supernatant was used for quantification of intracellular thiols using Ellman's reagent. Each experiment was repeated at least three times with errors as shown unless smaller than points plotted.
For the estimation of intracellular thiols in HCT116 cells, the cells were incubated with different concentrations of glucose for 4 hours. For FIG. 12, the cells were then treated with HEDS for 3 hours. After treatment, the attached cells were washed with cell rinse and lysed with 1 ml of sulphosalicyclic acid (SSA) lysis buffer. The samples were centrifuged at high speed in a Fisher 59A microfuge and the supernatant was used for quantification of intracellular thiols using Ellman's reagent. Each experiment was repeated at least three times with errors as shown unless smaller than points plotted.

HT29 cells = experiment: Colony assay, HEDS plus 4 Gy irradiation; type: cell-based, human; conditions: HT29, absence of glucose, HEDS 1 hour before 4 Gy irradiation
Description: as §5

[7] = Tolerability in tumor-bearing rats; type: in vivo
Description: as §1, §2, §3

With `N.N.[Cl][Pt][Cl]` [Cisplatin, cis-diamine-dichloroplatinum (II), reference compound] the “tumor volume on day 13 after the treatment” value (breast tumor xenograft; large tumors, cisplatin alone 2 mg/kg IP) was 4355±577 mm^3 and the “tumor volume at start of treatment” value (breast tumor xenograft; large tumors, cisplatin alone group, baseline) was 2948±180 mm^3.
In the case of `OCCSSCCO` [HEDS, hydroxyethyldisulfide], the radiation response [1] was “significantly increased”, the radiation response [2] was “significantly increased” and the “cytotoxic effect (clonogenic survival)” value ([3]; HCT116, HEDS alone 3 hours, presence of glucose) was “little/no cytotoxic effects”. The decrease in survival ([3]; HCT116, absence of glucose (deprived 4 hours), higher concentration of HEDS alone, 3 hours) was 75%, the “better tumor response with HEDS and etoposide compared to etoposide alone” value (breast tumor xenografts) was “at least 50%” and the intracellular thiols ([4]; HT29, glucose deprived 4 hours) was ≥ 40 % of the control. The intracellular thiols ([4]; HT29, with glucose) was “maintaining the intracellular thiols”, the sensitization to radiation (HCT116 cells) was “sensitization” and the “cytotoxic effect (clonogenic survival)” value ([5]; HT29, HEDS alone 3 hours, presence of glucose) was “little/no cytotoxic effects”. The effect on survival ([5]; HT29, absence of glucose (deprived 4 hours), higher concentration of HEDS alone) was “no significant effect”, the intracellular thiols ([6]; HCT116, glucose deprived 4 hours) was ≥ 40 % of the control and the intracellular thiols ([6]; HCT116, low concentrations (1-3 mM) of glucose) was “intracellular thiol depletion”. For the same compound, the intracellular thiols ([6]; HCT116, with glucose) was “maintaining the intracellular thiols” and the sensitization to radiation (HT29 cells) was “sensitization”.
In the case of `CC(SSC(C)C(=O)NCC(=O)O)C(=O)NCC(=O)O` (stereo not drawn) [MPG disulfide, disulfide of mercaptopropionylglycine (MPG) (glycinepropionyldisulfide)], the observable side effects ([7]; MPG disulfide 40 mg/Kg/day IP, three consecutive days) was “did not cause any observable side effects”, the observable side effects ([7]; MPG disulfide 40 mg/kg/day IP with cisplatin 2 mg/kg IP, MPG continued two more days) was “did not cause any observable side effects” and the “toxicity to the animals” value ([7]; rats with breast tumor xenograft) was “non-toxic”. For the same compound, the effect on tumors (breast tumor xenograft; MPG disulfide in combination with cisplatin, even large tumors) was “completely eliminated tumors”, the “tumor volume on day 13 after the start of the treatment” value (breast tumor xenograft; large tumors, MPG disulfide 40 mg/kg/day IP (3 days) in combination with cisplatin 2 mg/kg IP) was 112±47 mm^3 and the “increase in tumor size” value (breast tumor xenograft; large tumors, MPG disulfide alone 40 mg/Kg/day IP, day 5 after the treatment) was 3 fold. For the same compound, the “tumor volume at start of treatment” value (breast tumor xenograft; large tumors, MPG disulfide alone group, baseline) was 2848±538 mm^3, the “tumor smaller than the untreated animals” value (breast tumor xenograft; large tumors, MPG disulfide alone, day 5 after the treatment) was 2.5 fold and the maximum tumor size (breast tumor xenograft; large tumors, MPG disulfide alone, day 8) was 18,038±1289 mm^3. The “tumor smaller compared to cisplatin group” value (breast tumor xenograft; large tumors, MPG disulfide in combination with cisplatin, day 13) was 38 fold, the “tumor volume at start of treatment” value (breast tumor xenograft; large tumors, cisplatin and MPG disulfide combination group, baseline) was 2402±218 mm^3 and the “tumor volume on day 13” value (breast tumor xenograft; small tumors, MPG disulfide alone 40 mg/Kg/day IP, three consecutive days) was 126±119 mm^3. The “growth of small size tumors” value (breast tumor xenograft; small tumors, MPG disulfide alone 40 mg/Kg/day IP, to day 13) was “completely inhibited the growth” and the “tumor volume on the day of treatment” value (breast tumor xenograft; small tumors, MPG disulfide alone group, baseline) was 139±4.29 mm^3.
